Data taken from PubChem BioAssay (NCI).
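Cultured in 96-well plates, cells were exposed to test compound for 48 hours across five concentrations. The concentration for 50% growth inhibition is given as GI50. TGI is the concentration that stops growth completely.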 *1 amine or outer side, *2 acyl side, *3 side chain or, on linkers, in order; H or OH if unused. Where a SMILES comes first, the peptide text is derived from it. Bridges are numbered along the chain shown (N, C = ends). Roman numbers before positions name the chains, in order. [ ]: non-standard residue; d: D form. Actinocin(9to1) = Cc1c2oc3c(C)ccc(C(=O)[*:1])c3nc-2c(C(=O)[*:2])c(N)c1=O; NMeF = CN[CH](Cc1ccccc1)C(=O)O; Sar = CNCC(=O)O

Tests used:
Test in all cases: growth of human tumour cells (NCI), 48 h
DMS 114 small cell lung = system: DMS 114 small cell lung
DMS 273 small cell lung = system: DMS 273 small cell lung
HOP-18 NSCLC = system: HOP-18 NSCLC
KM20L2 colon = system: KM20L2 colon
M19-MEL melanoma = system: M19-MEL melanoma
SNB-78 CNS = system: SNB-78 CNS
MDA-N = system: MDA-N
RXF-631 renal = system: RXF-631 renal
XF 498 CNS = system: XF 498 CNS
SN12K1 renal = system: SN12K1 renal

Row | Compound | TGI (DMS 114 small cell lung) [µM] | TGI (DMS 273 small cell lung) [µM] | TGI (HOP-18 NSCLC) [µM] | TGI (KM20L2 colon) [µM] | TGI (M19-MEL melanoma) [µM] | TGI (SNB-78 CNS) [µM] | TGI (XF 498 CNS) [µM] | also measured
1 | O=S1Nc2c(Cl)cc(Cl)c(Cl)c2S1 (stereo unspecified) | > 100 | > 100 | > 100 | > 100 | > 100 | > 100 | – | –
2 | C=CC1=C(C)C2=NC1=CC1=NC(=C(CC)/C1=C\O)C=C1N=C3C(=C1C)C(=O)[C@H](C(=O)OC)C3=C1NC(=C2)[C@@H](C)[C@@H]1CCC(=O)O | – | – | – | – | – | – | – | TGI (MDA-N): > 100 µM
3 | Cc1coc2c1C(OC(=O)C(C)C)C1(C)C(C)CCC(O)C1C2=O (stereo unspecified) | – | – | – | – | – | – | – | TGI (MDA-N): > 100 µM
4 | Cn1cccc1/C=C/c1cc(Br)c(/C=C/c2cccn2C)cc1Br | 35.2 | 38.3 | 28 | 58.4 | 53.7 | – | – | TGI (RXF-631 renal): 49.4 µM
5 | Cc1cccc2c(O)cc(=O)oc12 | > 100 | – | > 100 | > 100 | > 100 | > 100 | > 100 | –
6 | CC(=O)[O-].O=C([CH-]C(=O)c1ccccc1)c1ccccc1.O=C([CH-]C(=O)c1ccccc1)c1ccccc1.[Sm+3] | – | – | – | 36.5 | – | – | – | GI50 (KM20L2 colon): 7.33 µM
7 | Cc1c2oc3c(C)ccc(C(=O)NC4C(=O)NC(C(C)C)C(=O)N5CCCC5C(=O)N(C)CC(=O)N(C)C(Cc5ccccc5)C(=O)OC4C)c3nc-2c(C(=O)NC2C(=O)NC(C(C)C)C(=O)N3CCCC3C(=O)N(C)CC(=O)N(C)C(Cc3ccccc3)C(=O)OC2C)c(N)c1=O (stereo unspecified) (I: TVP[Sar][NMeF] / II: TVP[Sar][NMeF]; ester I:1-I:C, II:1-II:C; linker I:N-II:N via Actinocin(9to1); configuration not given here) | – | – | – | – | – | – | – | GI50 (MDA-N): 0.00491 µM; TGI (MDA-N): 0.0564 µM
8 | CCC[CH2][Sn]1([CH2]CCC)[O]CC(C)[O]1 (stereo unspecified) | 2.49 | 2.66 | – | 6.86 | 2.23 | 0.909 | 2.33 | GI50 (DMS 114 small cell lung): 1.11 µM; GI50 (DMS 273 small cell lung): 1.26 µM; GI50 (KM20L2 colon): 2.53 µM; GI50 (M19-MEL melanoma): 0.803 µM; GI50 (SNB-78 CNS): 0.301 µM; GI50 (XF 498 CNS): 0.99 µM
9 | C/C=N\N1C(=O)c2ccccc2C1=O | > 100 | > 100 | > 100 | > 100 | > 100 | > 100 | > 100 | TGI (RXF-631 renal): > 100 µM
10 | O=NN(CCCl)C(=O)NC1CCC(CC2CCC(NC(=O)N(CCCl)N=O)CC2)CC1 (stereo unspecified) | > 55.1 | 85.5 | > 56.2 | > 100 | > 100 | > 87.3 | 19.8 | TGI (RXF-631 renal): > 100 µM; TGI (SN12K1 renal): 34.2 µM
11 | Cn1c(=O)c2/c(n(C)c1=O)=N\C=c1\c(=O)n(C)c(=O)n(C)\c1=N\C=2 | > 100 | – | > 100 | > 100 | > 100 | > 100 | – | TGI (RXF-631 renal): > 100 µM
12 | CN(C)CC/C(=N\Nc1ccc(Cl)cc1Cl)c1ccccc1 | 27.6 | 27 | 28.7 | 27.5 | 31.5 | 27.6 | – | –
13 | CCCCCCCCCCCCCCCCCC(=O)Nc1ccn(C2OC(CO)C(O)C2O)c(=O)n1 (stereo unspecified) | – | > 100 | > 100 | > 100 | > 100 | > 100 | – | TGI (MDA-N): > 100 µM
14 | Oc1c(CN2CCN(c3ccccc3)CC2)cc(Br)c2cccnc12 | – | – | – | – | – | – | – | TGI (MDA-N): > 100 µM
15 | Brc1cc2c(cc1Br)CN(c1ccccc1)C2 | > 100 | > 100 | – | > 100 | > 100 | > 100 | > 100 | –
16 | CCc1cccc(C)c1NC(=O)CC1C(=O)Nc2ccccc2S1(=O)=O (stereo unspecified) | 34.1 | 25 | – | 34.2 | 38.9 | 53.7 | 26.2 | TGI (RXF-631 renal): 33 µM
17 | NNC(=O)C(=O)N/N=C(\CCC(=O)Nc1ccc(Cl)cc1)Cc1nc2ccccc2s1 | 54.8 | 67.8 | 38.7 | > 100 | 36.9 | > 100 | – | –
